In publication PMC10349806 (Nature Communications, 2023):
Where “and” joins values, the source holds several entries; their conditions need not be identical. Equal entries are not always repeated.

Columns and labels:
PfCRT variant E207F = experiment: CQ uptake assay, oocytes expressing E207F; assay type: cell-based, Plasmodium falciparum
Method: (§1) Site-directed mutagenesis of PfCRT^Dd2 was performed as described using the megaprimer method with overlap extension[21],[54]. The primer pairs used are listed in Supplementary Table 6. Please note that a codon-optimized and oocyte-adapted version of PfCRT^Dd2 was used[22] (Supplementary Fig. 16). The resulting DNA fragment was cloned into the SP64T expression vector and verified by sequencing.
(§2) Oocytes were obtained as described previously. Briefly, adult (>2 years old) female X. laevis frogs (NASCO) were anesthetized in a cooled solution of ethyl 3-amino benzoate methanesulfonate (0.1%, w/v), followed by a surgical removal of parts of the ovary. The ovary lobes were carefully dissected and small pieces of oocytes were incubated in Ca^2+-free ND96 buffer (96 mM NaCl, 2 mM KCl, 1 mM MgCl2 buffered with 5 mM HEPES/NaOH, pH 7.5) supplemented with collagenase D (0.1%, w/v; Roche), BSA (0.5%, w/v), and 9 mm Na2HPO4 at 18 °C for 14-16 h while gentle shaking. After incubation, the oocytes were carefully washed several times with ND96 buffer (96 mM NaCl, 2 mM KCl, 1.8 mM CaCl2, 1 mM MgCl2 buffered with 5 mM HEPES/NaOH, pH 7.5) supplemented with 100 mg l^−1 gentamycin). Defolliculated and healthy-looking stage V-VI oocytes were manually selected for RNA microinjection. The RNA was generated as following: The codon-optimized sequences of PfCRT variants were cloned into the pSP64T expression vector. After vector linearization using the restriction endonucleases BamHI or SalI (New England Biolabs), transcription was performed using the in vitro SP6 mMessage mMachine Kit (Ambion)[34]. The obtained RNA was kept at −80 °C and diluted with nuclease-free water to a concentration of 0.6 μg μl^−1. Precision-bore glass capillary tubes (3.5-inch glass capillaries; Drummond Scientific Co.) were pulled on a vertical puller (P-87 Flaming/Brown micropipette puller, Sutter Instrument Co.), graduated, and placed on a microinjector (Nanoject II Auto-Nanoliter Injector, Drummond Scientific Co.). 50 nl of nuclease-free water alone (control oocytes) or 50 nl of 0.6 μg μl^−1 RNA were injected under stereomicroscopic control. Injected oocytes were incubated for 46–72 h at 18 °C with twice-daily buffer changes before usage in experiments.
(§3) Drug uptake assays were performed as described previously[21],[22],[24],[34]. […] The direction of radio-labeled drug transport is here from the mostly acidic extracellular solution (pH 4.5 or 6.0, as indicated) into the oocyte cytosol (pH ∼ 7.2), which corresponds to the efflux of drug from the acidic digestive vacuole (pH 5.2) into the parasite cytoplasm (pH 7.2). The topology of PfCRT in the oolemma is such that both the N- and C-terminus face the extracellular milieu[3],[22]. In the parasite, the N- and C-terminus face the lumen of the digestive vacuole. CQ uptake kinetics were performed by incubating oocytes in ND96 buffer adjusted to a pH of 4.5, 5.0, 5.5, or 6.0 and supplemented with 50 nM [^3H]CQ and one of 7 different CQ concentrations (10 µM, 50 µM, 100 µM, 200 µM, 300 µM, 400 µM, 500 µM CQ). The reaction was stopped at the 60 min time point, which is in the linear uptake range[22],[34] (Supplementary Fig. 17). For determination of the amount of drug uptake for each oocyte, the reaction medium was removed and the oocytes were washed three times with 2 ml of ice-cold ND96 buffer. Each oocyte was individually transferred to a scintillation vial containing 5% sodium dodecyl sulfate (200 μl) for lysis. The radioactivity of each sample was measured using a liquid scintillation analyzer Tri-Carb 4910 TR (PerkinElmer). Oocytes that were injected with water instead of RNA were analyzed in parallel, representing the uptake of a drug by diffusion and/or endogenous permeation pathways. The resulting value represents the “background“ level of drug accumulation in oocytes (in-depth discussion in[22]). […]

PfCRT variant F287A = target: T1, PfCRT variant F287A (Plasmodium falciparum, UniProt Q9N623, A220S/F287A/I356T/K76T/M74I/N326S/N75E/Q271E/R371I); experiment: CQ uptake assay, oocytes expressing F287A; assay type: cell-based
T1 sequence (Q9N623 1-424 M74I/N75E/K76T/A220S/Q271E/F287A/N326S/I356T/R371I): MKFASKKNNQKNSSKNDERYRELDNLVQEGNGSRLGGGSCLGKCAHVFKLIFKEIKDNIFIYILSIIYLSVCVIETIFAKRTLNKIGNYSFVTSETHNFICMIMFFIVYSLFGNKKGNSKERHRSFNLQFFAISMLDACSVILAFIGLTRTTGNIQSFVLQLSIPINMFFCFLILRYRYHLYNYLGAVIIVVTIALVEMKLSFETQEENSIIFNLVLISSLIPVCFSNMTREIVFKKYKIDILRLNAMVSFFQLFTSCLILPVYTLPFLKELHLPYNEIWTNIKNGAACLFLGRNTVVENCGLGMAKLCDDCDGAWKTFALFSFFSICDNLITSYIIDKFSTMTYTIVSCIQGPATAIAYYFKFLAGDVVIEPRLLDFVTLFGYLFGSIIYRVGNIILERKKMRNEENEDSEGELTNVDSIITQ
Method: as §1, §2, §3

[1] = E207F, 50 µM CQ, 1 h, mean ± SEM
[2] = F287A, 50 µM CQ, 1 h, mean ± SEM

CCN(CC)CCCC(C)Nc1ccnc2cc(Cl)ccc12 (stereo not drawn) [CQ, chloroquine]
Activity at pH 4.5 (PfCRT variant E207F; [1]): 2.67 ± 0.27 pmol h-1 oocyte-1
Activity at pH 6.0 (PfCRT variant E207F; [1]): 3.27 ± 0.42 pmol h-1 oocyte-1
R-value (PfCRT variant E207F; E207F, CQ transport at pH 4.5 / pH 6.0): 0.84 ± 0.09
E207F transport activity pH 4.5 (PfCRT variant E207F; pH 4.5, individual replicates, Fig 6b): 3.33 pmol oocyte-1 h-1 and 3.06 pmol oocyte-1 h-1 and 2.01 pmol oocyte-1 h-1 and 2.27 pmol oocyte-1 h-1
E207F transport activity pH 6.0 (PfCRT variant E207F; pH 6.0, individual replicates, Fig 6b): 2.89 pmol oocyte-1 h-1 and 4.68 pmol oocyte-1 h-1 and 2.46 pmol oocyte-1 h-1 and 3.03 pmol oocyte-1 h-1
E207F R-value (PfCRT variant E207F; ratio of activity pH 4.5 / pH 6.0): 1.15 and 0.65 and 0.82 and 0.75
Activity at pH 4.5 (PfCRT variant F287A; [2]): 1.50 ± 0.05 pmol h-1 oocyte-1
Activity at pH 6.0 (PfCRT variant F287A; [2]): 4.71 ± 0.24 pmol h-1 oocyte-1
R-value (PfCRT variant F287A; F287A, CQ transport at pH 4.5 / pH 6.0): 0.32 ± 0.02
F287A transport activity pH 4.5 (PfCRT variant F287A; pH 4.5, single replicates, Fig 1d left): 1.56 pmol oocyte-1 h-1 and 1.62 pmol oocyte-1 h-1 and 1.49 pmol oocyte-1 h-1 and 1.34 pmol oocyte-1 h-1
F287 R-value (PfCRT variant F287A; pH 4.5 vs pH 6.0, Fig 1d left): 0.32 and 0.33 and 0.38 and 0.26
F287A transport activity pH 6.0 (PfCRT variant F287A; pH 6.0, single replicates, Fig 1d left): 4.84 pmol oocyte-1 h-1 and 4.98 pmol oocyte-1 h-1 and 3.89 pmol oocyte-1 h-1 and 5.12 pmol oocyte-1 h-1
